Source: US20100168102A9, “Amide Derivatives as Kinase Inhibitors” (Devgen NV, priority 2005, published 2010)
Structures can show the parent of a compound that is named as a salt. Where two headings read alike, the source gives them in different places.

Columns and labels:
PKC epsilon = target: T1, PKC epsilon (Homo sapiens, UniProt Q02156); test: Biochemical assay for PKC epsilon (fluorescence polarization, Protein Kinase C Assay Kit, Red); conditions: read-out: IC50 μM PKCε
T1 construct: purchased Invitrogen P2282
T1 sequence (Q02156 1-737): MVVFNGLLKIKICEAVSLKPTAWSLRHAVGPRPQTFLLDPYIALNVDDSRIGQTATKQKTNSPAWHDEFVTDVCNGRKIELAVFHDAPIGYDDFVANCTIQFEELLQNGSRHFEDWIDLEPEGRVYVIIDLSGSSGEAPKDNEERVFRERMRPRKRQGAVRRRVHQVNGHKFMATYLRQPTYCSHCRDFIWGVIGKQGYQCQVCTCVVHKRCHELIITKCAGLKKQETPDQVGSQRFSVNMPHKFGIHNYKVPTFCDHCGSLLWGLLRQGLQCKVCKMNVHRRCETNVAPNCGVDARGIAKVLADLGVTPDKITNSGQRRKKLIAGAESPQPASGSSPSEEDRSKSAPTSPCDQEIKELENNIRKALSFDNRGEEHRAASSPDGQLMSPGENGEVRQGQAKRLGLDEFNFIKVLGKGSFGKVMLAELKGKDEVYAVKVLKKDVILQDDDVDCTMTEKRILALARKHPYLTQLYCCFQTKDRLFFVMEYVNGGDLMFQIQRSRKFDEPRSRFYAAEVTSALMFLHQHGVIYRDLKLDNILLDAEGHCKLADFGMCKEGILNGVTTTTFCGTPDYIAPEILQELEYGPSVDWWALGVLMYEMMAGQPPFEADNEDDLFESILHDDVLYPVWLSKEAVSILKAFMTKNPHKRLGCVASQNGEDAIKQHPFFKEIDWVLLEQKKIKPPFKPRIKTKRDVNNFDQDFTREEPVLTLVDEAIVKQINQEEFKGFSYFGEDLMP
How it was run: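 Read-out was fluorescence-polarization competition between phosphorylated substrate and a rhodamine PKC tracer for an anti-phosphoserine antibody, added with EDTA stop after an 80 min room-temperature kinase reaction with ATP and protein substrate (Mg2+/Ca2+ buffer). Enzyme (10 ng/ml final) was preincubated with compound for 30 min.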

PKCε = test: Reporter assay (PathDetect trans reporter, Elk/SEAP) in reporter cell-lines over-expressing PKCε; format: cell-based
Description: Whereas the reporter assay is focused on PKCε specific inhibition in a recombinant system, the monocytes assay is a biomarker assay that can be performed in isolated monocytes, full blood and in vivo to follow the pharmacological reduction of cytokine production:
The reporter assay exploits the effect of over-expressed PKCε on kinase activation and phosphorylation of a transcription factor to evaluate the potency and selectivity of PKCε inhibitors in a cellular context.
It has been shown by jae-Won Soh et al (MCB, February 1999 p 1313-1324) that over-expression of PKC epsilon results in the activation of MAPK-pathway (c-raf/MEK/ERK) leading to the activation of Elk transcription factor. This event can be monitored using the PathDetect trans reporter assay system (Stratagene): pFA2-ELK codes for a fusion protein between the Gal4 DNA binding domain and the transactivation domain of Elk which drives the expression of a secreted alkaline phosphatase (SEAP) reporter gene.
Compounds are incubated with reporter cell-lines either over-expressing PKCε, leading to continued activation of the kinase, or mock transfected cells. Inhibition of the PKCε induced signal in the absence of an effect on the basal level (mock transfected cells) is indicative for selective PKCε inhibition.

human ROCKα/ROCKII mix = target: T2, human ROCKα/ROCKII mix (Homo sapiens, UniProt O75116); test: Biochemical assay for ROCK (fluorescence polarization, ROCK IMAP Kit)
T2 construct: purchased Upstate Biotechnology 14-451
T2 sequence (O75116 11-552 limits assumed): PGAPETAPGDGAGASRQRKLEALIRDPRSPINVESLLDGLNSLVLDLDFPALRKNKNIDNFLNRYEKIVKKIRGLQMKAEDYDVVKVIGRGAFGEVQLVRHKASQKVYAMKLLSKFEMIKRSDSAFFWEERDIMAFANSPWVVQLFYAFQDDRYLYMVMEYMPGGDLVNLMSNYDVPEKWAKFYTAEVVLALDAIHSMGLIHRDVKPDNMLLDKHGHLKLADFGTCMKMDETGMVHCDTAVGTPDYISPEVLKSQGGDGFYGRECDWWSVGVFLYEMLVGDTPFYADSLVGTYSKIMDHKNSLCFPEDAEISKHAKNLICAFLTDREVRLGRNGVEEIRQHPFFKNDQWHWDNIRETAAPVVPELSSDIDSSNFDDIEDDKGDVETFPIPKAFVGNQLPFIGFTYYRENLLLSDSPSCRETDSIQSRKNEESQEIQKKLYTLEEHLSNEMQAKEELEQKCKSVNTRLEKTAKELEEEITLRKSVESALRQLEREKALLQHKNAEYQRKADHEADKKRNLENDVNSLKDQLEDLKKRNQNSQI

[1] = Table 2, compounds of Formula XIII
[2] = compounds of Formula XIV, Table 3

Row | Compound | IC50 (human ROCKα/ROCKII mix) | IC50 (PKC epsilon) | also measured
1 | NC(CNC(=O)C1(c2ccc(F)cc2)CC1)c1ccc(C(=O)Nc2ccncc2)cc1 (stereo not shown) [Compound 340, 4-(1-Amino-2-{[1-(4-fluoro-phenyl)-cyclopropanecarbonyl]-amino}-ethyl)-N-pyridin-4-yl-benzamide] | – | – | IC50 (PKC epsilon; [1]): < 0.05 µM; IC50 (PKCε): < 5 µM
2 | NC(CNC(=O)C1CCCCc2ccc(F)cc21)c1ccc(C(=O)Nc2ccncc2)cc1 (stereo not shown) [Compound 356, 3-Fluoro-6,7,8,9-tetrahydro-5H-benzocycloheptene-5-carboxylic acid {2-amino-2-[4-(pyridin-4-ylcarbamoyl)-phenyl]-ethyl}-amide] | – | – | IC50 (human ROCKα/ROCKII mix; [1]): 0.05 to 0.5 µM; IC50 (PKC epsilon; [1]): < 0.05 µM; IC50 (PKCε): < 5 µM
3 | N[C@H](CC(=O)N[C@@H]1CCCc2ccccc21)c1ccc(C(=O)Nc2ccncc2)cc1 [Compound 373, 4-{(R)-1-Amino-2-[(R)-(1,2,3,4-tetrahydro-naphthalen-1-yl)carbamoyl]-ethyl}-N-pyridin-4-yl-benzamide dihydrochloric acid salt] | < 0.05 µM | < 0.05 µM | IC50 (PKCε): < 5 µM
4 | NC(c1ccc(C(=O)Nc2ccncc2)cc1)C1CCCN1C(=O)C1(c2ccc(Cl)cc2F)CC1 (stereo not shown) [Compound 605, 4-(Amino-{1-[1-(4-chloro-2-fluoro-phenyl)-cyclopropanecarbonyl]-pyrrolidin-2-yl}-methyl)-N-pyridin-4-yl-benzamide] | 0.5 to 5 µM | 0.5 to 5 µM | –
5 | CC(C)(C(=O)N1CCCC1C(N)c1ccc(C(=O)Nc2ccncc2)cc1)c1ccc(F)c(Cl)c1 (stereo not shown) [Compound 606, 4-(Amino-{1-[2-(3-chloro-4-fluoro-phenyl)-2-methyl-propionyl]-pyrrolidin-2-yl}-methyl)-N-pyridin-4-yl-benzamide] | 0.5 to 5 µM | 0.5 to 5 µM | –
6 | NC(c1ccc(C(=O)Nc2ccncc2)cc1)C1CCCN1C(=O)C1(c2ccc(F)c(Cl)c2)CC1 (stereo not shown) [Compound 607, 4-(Amino-{1-[1-(3-chloro-4-fluoro-phenyl)-cyclopropanecarbonyl]-pyrrolidin-2-yl}-methyl)-N-pyridin-4-yl-benzamide] | 0.5 to 5 µM | 0.5 to 5 µM | –
7 | NC(c1ccc(C(=O)Nc2ccncc2)cc1)C1CCCN1C(=O)C1CCc2ccccc21 (stereo not shown) [Compound 608, 4-{Amino-[1-(indane-1-carbonyl)-pyrrolidin-2-yl]-methyl}-N-pyridin-4-yl-benzamide] | 0.5 to 5 µM | 0.5 to 5 µM | –
8 | NC(c1ccc(C(=O)Nc2ccncc2)cc1)C1CCCN1C(=O)C1CC(=O)c2ccccc21 (stereo not shown) [Compound 609, 4-{Amino-[1-(3-oxo-indane-1-carbonyl)-pyrrolidin-2-yl]-methyl}-N-pyridin-4-yl-benzamide] | 0.5 to 5 µM | 0.5 to 5 µM | –
9 | NC(c1ccc(C(=O)Nc2ccncc2)cc1)C1CCCN1C(=O)C1CCc2cc(F)ccc21 (stereo not shown) [Compound 610, 4-{Amino-[1-(5-fluoro-indane-1-carbonyl)-pyrrolidin-2-yl]-methyl}-N-pyridin-4-yl-benzamide] | 0.5 to 5 µM | 5 to 50 µM | –
10 | NC(c1ccc(C(=O)Nc2ccncc2)cc1)C1CCCN1C(=O)C1CCCc2ccccc21 (stereo not shown) [Compound 613, 4-{Amino-[1-(1,2,3,4-tetrahydro-naphthalene-1-carbonyl)-pyrrolidin-2-yl]-methyl}-N-pyridin-4-yl-benzamide] | 0.5 to 5 µM | 0.5 to 5 µM | –
11 | NC(c1ccc(C(=O)Nc2ccncc2)cc1)C1CCCN1C(=O)C1CCOc2ccccc21 (stereo not shown) [Compound 615, 4-{Amino-[1-(chroman-4-carbonyl)-pyrrolidin-2-yl]-methyl}-N-pyridin-4-yl-benzamide] | 0.5 to 5 µM | 5 to 50 µM | –
12 | NC(c1ccc(C(=O)Nc2ccncc2)cc1)C1CCCN1C(=O)C1CCOc2ccc(Cl)cc21 (stereo not shown) [Compound 616, 4-{Amino[1-(6-chloro-chroman-4-carbonyl)-pyrrolidin-2-yl]-methyl}-N-pyridin-4-benzamide] | 0.5 to 5 µM | 0.5 to 5 µM | –
13 | NC(c1ccc(C(=O)Nc2ccncc2)cc1)C1CCCN1C(=O)C1CCOc2ccc(F)cc21 (stereo not shown) [Compound 617, 4-{Amino[1-(6-fluoro-chroman-4-carbonyl)-pyrrolidin-2-yl]-methyl}-N-pyridin-4-benzamide] | 0.5 to 5 µM | 0.5 to 5 µM | –
14 | NC(c1ccc(C(=O)Nc2ccncc2)cc1)C1CCCN1C(=O)C1CCSc2ccccc21 (stereo not shown) [Compound 618, 4-{Amino[1-(thiochroman-4-carbonyl)-pyrrolidin-2-yl]-methyl}-N-pyridin-4-yl-benzamide] | 0.5 to 5 µM | 0.5 to 5 µM | –
15 | NC(c1ccc(C(=O)Nc2ccncc2)cc1)C1CCCN1C(=O)C1CCSc2ccc(F)cc21 (stereo not shown) [Compound 619, 4-{Amino[1-(6-fluoro-thiochroman-4-carbonyl)-pyrrolidin-2-yl]-methyl}-N-pyridin-4-yl-benzamide] | 0.5 to 5 µM | 0.5 to 5 µM | –
16 | NC(c1ccc(C(=O)Nc2ccncc2)cc1)C1CCCN1C(=O)C1CCCCc2ccc(F)cc21 (stereo not shown) [Compound 620, 4-{Amino-[1-(3-fluoro-6,7,8,9-tetrahydro-5H-benzocycloheptene-5-carbonyl)-pyrrolidin-2-yl]-methyl}-N-pyridin-4-yl-benzamide] | 5 to 50 µM | 5 to 50 µM | –
17 | NC(c1ccc(C(=O)Nc2ccncc2)cc1)C1CCCN1C(=O)C1CCCc2sccc21 (stereo not shown) [Compound 621, 4-{Amino-[1-(4,5,6,7-tetrahydro-benzo[b]thiophene-4-carbonyl)-pyrrolidin-2-yl]-methyl}-N-pyridin-4-yl-benzamide] | 0.05 to 0.5 µM | 0.5 to 5 µM | –
18 | CC(C)(NC(=O)CC(N)c1ccc(C(=O)Nc2ccncc2)cc1)c1ccc(Cl)cc1 (stereo not shown) [Compound 622, 4-{1-Amino-2-[1-(4-chloro-phenyl)-1-methyl-ethylcarbamoyl]-ethyl}-N-pyridin-4-yl-benzamide] | – | – | IC50 (human ROCKα/ROCKII mix; [2]): 0.05 to 0.5 µM; IC50 (PKC epsilon; [2]): 0.05 to 0.5 µM
19 | Bicyclo[4.2.0]octa-1(6),2,4- triene-7-carboxylic acid {2- amino-2-[4-(pyridin-4- ylcarbamoyl)-phenyl]-ethyl}- methyl-amide [Compound 451] | 0.05 to 0.5 µM | 5 to 50 µM | –
20 | Chroman-4-carboxylic acid {2-amino-2-[4-(pyridin-4- ylcarbamoyl)-phenyl]-ethyl}- methyl-amide [Compound 514] | 0.5 to 5 µM | 5 to 50 µM | –
21 | Indan-1-carboxylic acid {2- amino-2-[4-(pyridin-4- ylcarbamoyl)-phenyl]-ethyl}- methyl-amide [Compound 507] | 0.5 to 5 µM | 5 to 50 µM | –
22 | N-{2-Amino-2-[4-(pyridin-4- ylcarbamoyl)-phenyl]-ethyl}- nicotinamide [Compound 107] | – | – | IC50 (human ROCKα/ROCKII mix; [1]): 0.5 to 5 µM; IC50 (PKC epsilon; [1]): 0.5 to 5 µM
